What all share (assay type): in vivo, rat
One experiment deals with cyclooxygenase-2 (COX-2). In words: Assay A angiotensin II infusion model: cyclooxygenase-2 immunostaining of hearts. To be noted: angiotensin II infused rats; eplerenone 100 mpk. Here is the method:
Male Wistar rats (n—50, 10/group; BW=200 g)
2. Angiotensin 11 (25 ng/min, sc via aizet minipump)

The subject of experiment [1] is Transforming growth factor beta 1. In words: Assay C: TGF beta 1 mRNA in left ventricle (TaqMan). To be noted: for TGF-β, Mean: group mean; for TGF-β: individual rats. Here is the method:
(§1) The procedure of Assay B was expanded upon in a further study. […] Myocardial tissue from animals in each treatment group was examined after 7, 14, or 30 days of treatment.
(§2) Potassium chloride supplementation was added to the saline solution in order to prevent the potential hypokalemia associated with aldosterone excess.
(§3) At the time of the surgery, an Alzet 2002 osmotic minipump (Alza Corp., Palo Alto, Calif.) containing either vehicle (9% ethanol/87% propylene glycol/4% dH2O) or 1.0 mg/mL d-aldosterone (Sigma Chemical, St. Louis, Mo.) was inserted subcutaneously at the nape of the neck. Aldosterone was administered at a dose of 0.75 g/hour. […] Animals were sacrificed from each group (n=8-13) after 7, 14, or 30 days of treatment.
Following exsanguination, hearts and kidneys were isolated, removed, rinsed in cold phosphate-buffered saline, and blotted dry. Kidneys were immediately bifurcated through the long axis with a razor blade and placed in 10% neutral buffered formalin (NBF, Richard-Allen Scientific, Kalamazoo, Mich.). For the hearts, the right ventricle (RV) was cut away from the left ventricle (LV), both ventricles were weighed using a Mettler AE163 balance (Mettler-Toledo, Inc., Hightstown, N.J.), and the RV was placed in 10% NBF. A 2 mm coronal slab of the LV apex was removed and frozen with dry ice/isopentane for analysis of gene expression and the remaining portion of the LV was placed in 10% NBF for fixation. Final wet trimming was completed after 3-4 days fixation where a second 2 mm coronal slab was removed for hydroxyproline analysis and a third 2 mm slab was removed from the equatorial region for histology.
(§4) The fluorogenic 5′-nuclease assay (TaqMan PCR) using Applied Biosystems' 7700 Sequence Detection System (Applied Biosystems, Foster City, Calif.) allowed for real time detection/quantitation of a specific gene by monitoring the increase in fluorescence of a gene-specific, dye-labeled oligonucleotide probe. Probes for target and reference genes were labeled at the 5′-end with a 6-carboxyfluorescein (6FAM) reporter dye and at the 3′-end with a 6-carboxy-N,N,N′,N′-tetramethylrhodamine (TAMRA) quencher dye. When the probe was annealed to the target gene, fluorescence of 6FAM was prevented by the close proximity of TAMRA. The exonuclease activity of Taq polymerase released the dyes from the oligonucleotide probe by displacing the probe from the target sequence resulting in fluorescence excitation in direct proportion to the amount of target message present. Data analysis was performed using the Sequence Detection System software from Applied Biosystems.
Primers and probes were designed using Oligo Primer Analysis Software, Version 5.0 (National Biosciences Inc. (NBI)-Wojciech Rychlik, Cascade, Colo.). Primers were synthesized by Life Technologies (Grand Island, N.Y.) and probes were synthesized by Applied Biosystems. Primer/probe sets were designed from known sequences of rat genes to be analyzed. All target gene values were normalized to a reference gene, constitutively expressed cyclophilin. Primer/probe sets sequences can be found in Table 8
RNA was extracted from frozen (−70° C.) left ventricle (LV) tissue (approximately 10-20 mg) using 1.5 mL RNA-STAT 60 according to manufacturer's instructions (Leedo Medical Laboratories, Inc., Houston, Tex.). Briefly, tissues were homogenized using a tissue homogenizer equipped with a 5 mm probe (Ultra-Turrax T8 Homogenizer, IKA Works, Inc. Wilmington, N.C.). Following homogenization, an equal volume of molecular grade chloroform (Sigma Chemical Co., St. Louis, Mo.) was incubated with periodic mixing for 10 min at room temperature. Samples were centrifuged at 12,000 g for 10 min and RNA was precipitated from the top layer by adding an equal volume of molecular grade isopropanol (Sigma Chemical Co.) followed by an overnight incubation at −80° C.
In general terms: Quantitative PCR measures a nucleic acid by following its amplification.

In experiment [2] the test system is Vascular Cell Adhesion Molecule-1 (VCAM-1). Kind of experiment: Assay C: VCAM-1 relative mRNA expression in heart (TaqMan). To be noted: for VCAM, Mean / VCAM: mRNA; for VCAM, Mean: group mean; for VCAM: individual rats. The method, then:
as §1, §2, §3, §4
All primers and probes were designed using Primer Express software supplied with the 7700 Sequence Detection System and synthesized by Applied Biosystems. Standard curves using 5-fold dilutions of total RNA (from 200 ng to 320 pg) were performed to determine the efficiency of each primer/probe set in the TaqMan reaction prior to the analysis of the experimental samples. Primer/probe sets were designed from known sequences of rat genes to be analyzed. All target gene values were normalized to a reference gene, constitutively expressed cyclophilin. Primer/probe set sequences can be found in Table 8.
RNA was extracted from frozen (−80° C.) rat heart tissue using the Totally RNA Isolation Kit (Ambion, Inc., Austin, Tex.). Tissue was crushed using a stainless steel mortar and pestle, which had been chilled to −80° C. and transferred to a dounce homogenizer (Kontes, Vineland, N.J.) containing 3-10 mL cold denaturation buffer. Tissue was homogenized and transferred to a sterile, 15 mL polypropylene centrifuge tube. An equal volume of phenol:chloroform:isoamyl alcohol (25:24:1) was added, samples were shaken vigorously for 1 min, and incubated on ice for at least 15 min. Samples were centrifuged for 30 min at 10,000 g. The aqueous phase was removed, 1/10 volume of a sodium acetate solution (3.0 M NaOAc pH 4.5) was added, samples were shaken or inverted for 10 seconds, and acid-phenol (premixed with isoamyl alcohol):chloroform (5:1, Ambion, Inc.) was added at an volume equivalent to the starting sample volume. Samples were shaken vigorously for 1 min, followed by a 15-min incubation on ice, and centrifuged for 30 min at 10,000 g. The aqueous phase removed and placed in a clean polypropylene tube. An equal volume of isopropanol (Sigma, St. Louis, Mo.) was added and the samples were mixed and incubated overnight at −20° C. The samples were centrifuged for 30 min at 10,000 g, the supernatant was removed and the RNA pellet was resuspended in DNAse/RNAse-free water. Samples were frozen at −80° C. for at least 2 hours, thawed on wet ice, and diluted for quantitation.

[3] abbreviates: 7 days of treatment, listed as Aldosterone + salt.
Where [4] appears, read: 14 days of treatment, listed as Aldosterone + salt.
The mark [5] stands for this setting: 30 days of treatment, listed as Aldosterone + salt.
[6] abbreviates: 7 days of treatment, listed as Eplerenone + aldosterone + salt.
The mark [7] stands for this setting: 14 days of treatment, listed as Eplerenone + aldosterone + salt.
Setting [8] is: 30 days of treatment, listed as Eplerenone + aldosterone + salt.

From patent US20030162759A1, “Aldosterone blocker therapy to prevent or treat inflammation-related disorders” (priority 2000, published 2003) come the findings set out here.

Each structure is given as a SMILES string. Where “and” joins values, the source holds several entries; their conditions need not be identical. Identical values can stand only once. Entries after “also recorded” stand apart in the source; their conditions may differ.

Take `C[C@]12CCC(=O)C=C1CC[C@@H]1[C@@H]2[C@@H](O)C[C@]2(C=O)[C@@H](C(=O)CO)CC[C@@H]12` [aldosterone]: the “Cyclooxygenase-2 expression in the heart (immunostaining)” value with cyclooxygenase-2 (COX-2) is on record as “restored the presence of cycloxygenase-2 in coronary arteries”. The “TGF-β, Mean” value in experiment [1] (30 days of treatment) was 1.33 AU. Also, the TGF-β in experiment [1] (setting [3]) was 0.98 AU and 1.47 AU and 1.21 AU; in experiment [1] (setting [4]), 0.55 AU and 1.27 AU and 0.56 AU; in experiment [1] (setting [5]), 1.27 AU and 1.20 AU and 0.83 AU and 0.54 AU. The “VCAM-1 gene expression increase” value in experiment [2] (day 30 of aldosterone+salt treatment, did not reach statistical significance) was “increased two-fold”. In addition, the “VCAM, Mean” value in experiment [2] (30 days of treatment) was determined as 2.14 AU. Further, the VCAM is 0.85 AU and 0.61 AU and 0.94 AU and 0.27 AU in experiment [2] (setting [3]); 0.89 AU and 0.69 AU and 0.84 AU and 0.72 AU in experiment [2] (setting [4]); 0.72 AU in experiment [2] (setting [5]).
With `COC(=O)[C@@H]1CC2=CC(=O)CC[C@]2(C)[C@@]23O[C@@H]2C[C@@]2(C)[C@@H](CC[C@@]24CCC(=O)O4)[C@H]13` [eplerenone, Pregn-4-ene-7,21-dicarboxylic acid, 9,11-epoxy-17-hydroxy-3-oxo-, γ-lactone, methyl ester, (7α, 11α, 17β) -], the “Cyclooxygenase-2 expression in the heart (immunostaining)” value in the experiment on cyclooxygenase-2 (COX-2) was “prevention by eplerenone of induction of COX-2 expression; also recorded: markedly reduced and in most cases completely prevented the expression of cycloxygenase-2”. Besides, the “TGF-β, Mean” value is listed as 0.99 AU in experiment [1] (7 days of treatment), 1.26 AU in experiment [1] (14 days of treatment) and 1.32 AU in experiment [1] (30 days of treatment). Moreover, the TGF-β in experiment [1] (setting [6]) was 0.80 AU (2×) and 0.81 AU and 0.51 AU and 0.61 AU and 0.84 AU; in experiment [1] (setting [7]) it was 0.58 AU and 0.62 AU and 1.04 AU and 0.71 AU and 1.21 AU and 2.41 AU; in experiment [1] (setting [8]) it was 1.00 AU and 1.40 AU and 0.96 AU and 1.93 AU and 0.89 AU. The “VCAM, Mean” value in experiment [2] (7 days of treatment) turned out to be 0.56 AU; in experiment [2] (14 days of treatment), 0.83 AU; in experiment [2] (30 days of treatment), 1.04 AU. Further, the VCAM in experiment [2] (setting [6]) was 0.67 AU and 0.58 AU and 0.22 AU and 0.57 AU and 0.53 AU and 1.00 AU; in experiment [2] (setting [7]), 0.54 AU and 0.66 AU and 0.61 AU (2×) and 0.67 AU and 0.86 AU and 1.00 AU and 0.68 AU (2×) and 1.60 AU; in experiment [2] (setting [8]), 0.79 AU and 0.52 AU and 0.57 AU and 0.61 AU. In experiment [2] (time course 7, 14, 30 days, eplerenone 100 mg/kg/day), the “VCAM-1 mRNA expression in myocardium” value was “significantly reduced; also recorded: inhibition of early time-course expression of myocardial ICAM-1 and VCAM-1”.
